Legend:
human T-cells = assay: Suppression of Human T-Cell Proliferation Assay (PHA-stimulated, [3H]-thymidine incorporation); format: cell-based; settings: inhibition of [3H]-thymidine incorporation of PHA-stimulated purified human T-cells, 72 hours
Source text: Inhibition of mitogen-induced T-cell proliferation can be used to profile immunosuppressive activity of test compounds. In the description of the assay which follows, mitogen-induced T-cell proliferation was used to test the inhibitory potencies of select compounds of the present invention.
In an assay similar to that described by Bradley in Mishell et al. (Eds.), 1980, Selected Methods in Cellular Immunology, pp 156-161, W. H. Freeman & Co., San Fransisco, Calif., T-cells were stimulated by incubation with phytohemagglutinin (PHA) which binds to cell surface molecules, including the T-cell receptor. This stimulation results in proliferation which can be measured by incorporation of [^3 H]-thymidine into cellular DNA.
Fresh LeukoPaks were obtained from the New York Blood Center, New York, N.Y. The cells, including erythrocytes and leukocytes, were diluted with Hank's Balanced Salt Solution (HBSS) (GIBCO, Grand Island, N.Y.) and layered over Lymphoprep (Nycomed Pharma AS, Oslo, Norway) in sterile 50 ml conical centrifuge tubes. Lymphocytes were isolated at the Hank's/Nycomed interface after centrifugation at 2000×g, 4° C. for 15 min. The lymphocytes were washed with Minimal Essential Medium (GIBCO) containing 2% fetal bovine serum (FBS) (Sigma Chemical Co., St. Louis, Mo.), 1% HEPES buffer (GIBCO) and 1% Penicillin-Stretomycin solution (GIBCO).
T-cells were further purified essentially by sheep erythrocyte (SRBC) rosetting as described by Morimoto et al., 1983, J. Immunol. 130:157. The isolated lymphocytes were adjusted to 2×10^7 cells/ml and 5 ml aliquots of the cell suspension were incubated for 10 minutes at room temperature with 5 ml of a 5% SRBC (Cappel, Organon Technika Corp., West Chester, Pa.) suspension. The cells were gently pelleted by centrifugation at 300 rpm for 10 minutes, followed by a 1 hour incubation at room temperature to allow rosette formation. The cells were gently resuspended,layered over Lymphoprep and centrifuged for 30 minutes at 500×g. The pellet, containing rosetted T-cells and SRBC was treated with ice cold buffered ammonium chloride (GIBCO) to lyse the erythrocytes. T-cells were washed twice with HBSS.
Purified T-cells were resuspended at 2×10^6 cells/ml in complete culture medium composed of RPMI-1640 (Whittaker Bioproducts, Walkerville, Md.) with 10% FBS (Sigma), 2 mM L-glutamine (GIBCO), 1% Penicillin-Streptomycin (GIBCO) and 15 mM HEPES (GIBCO). In 96-well plates (Becton Dickinson, Lincoln Park, N.J.), 0.1 ml aliquots of T-cell suspension were mixed with 0.05 ml of 40 μg/ml PHA-M (Sigma). The compounds of this invention were dissolved in dimethylsulfoxide at 10 mM and various dilutions in complete medium were added in duplicate wells (0.05 ml/well). The plates were incubated at 37° C. in a humidified atmosphere of 5% carbon dioxide and 95% air for 72 hours.
Proliferation was assessed by measurement of [^3 H]-thymidine incorporation. During the last 6 hours of incubation, the cells were pulse labelled with 1 μCi/well of [^3 H]-thymidine (New England Nuclear, Boston, Mass.). The cells were harvested onto glass fiber paper using a plate harvester and the radioactivity incorporated into cellular DNA corresponding to individual wells was measured by standard liquid scintillation counting methods. The mean counts per minute (CPM) of replicate wells was calculated and linear regression analysis of mean CPM versus compound concentration was used to determine the concentration of compound which would inhibit [^3 H]-thymidine incorporation of T-cells by 50% (IC50).

FKBP = FKBP (Homo sapiens, UniProt P62942); assay: PPIase Inhibition Assay; format: biochemical; settings: inhibition of PPIase activity of FKBP, substrate Succinyl-Ala-Phe-Pro-Phe-para-nitroanilide
FKBP, sequence (P62942 whole entry): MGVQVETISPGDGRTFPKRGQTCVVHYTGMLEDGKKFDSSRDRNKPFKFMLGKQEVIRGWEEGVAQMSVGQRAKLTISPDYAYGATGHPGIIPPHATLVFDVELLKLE
Method: This assay follows in principle the procedure described in Kofron et al., 1991, Biochemistry 30:6127. The three main reagents used are PPIase, a substrate for PPIase, and a selected inhibitor compound of the present invention. The basic principle behind this assay is the conversion of the cis isomer of the substrate to the trans form, which conversion is catalyzed by PPIase. Essentially, inhibition of this PPIase activity is measured for the selected compounds. A peptide chymotrypsin substrate containing a proline in the P2 position is only cleaved by chymotrypsin when the Phe-Pro bond is in the trans isomeric configuration. In the presence of excess chymotrypsin, all of the trans peptide isomers are cleaved within approximately five seconds, leaving only cis forms.
The cis peptide will spontaneously convert to the trans isomer at a slow rate. The cis to trans conversion is catalyzed by isomerases at a much faster rate than this spontaneous conversion. Proteins with PPIase activity are examples of such isomerases. After isomerization, the peptide is cleaved by chymotrypsin releasing p-nitroaniline which can be monitored at 390 nm. The rate of release is then calculated using a first order rate plus offset equation utilizing the ENZFITTER program (Leatherbarrow, BIOSOFT, Cambridge, United Kingdom).
In a plastic cuvette are added 950 ul of ice cold assay buffer (25 mM HEPES, pH 7.8, 100 mM NaCl), 10 uL of FKBP (2.5 uM in 10 mM Tris-Cl pH 7.5, 100 mM NaCl, 1 mM dithiothreitol), 25 ul of chymotrypsin (50 mg/ml in 1 mM HCl) and 10 ul of the test compound at various concentrations in dimethyl sulphoxide. The reaction is initiated by addition of 5 ul of substrate (Succinyl-Ala-Phe-Pro-Phe-para-nitroanilide, 5 mg/ml in 235 mM LiCl in trifluoroethanol).
The absorbance at 390 nm versus time is monitored for 90 sec using a Beckman DU70 spectrophotometer. The absorbance versus time data files are transferred to an IBM XT computer and the rate constants determined using the commercial Enzfitter program. For each set of data, the uncatalyzed rate of conversion is measured and the uninhibited enzymatic rate determined. The data are expressed as % Inhibition and are calculated as follows: [formula] where kobs is the rate in the presence of a selected test compound, kuncat is the rate in the absence of enzyme, and kuninh is the rate in the presence of enzyme and absence of inhibitor. Data are plotted as percent inhibition versus concentration of inhibitor. The values of the concentration of inhibitor required for 50% inhibition of enzyme activity (IC50) were determined by nonlinear least squares regression analysis.

Molecule CC[C@H](C)[C@H](NC(=O)[C@@H]1CCCN1CC(CC(C)C)NC(=O)OC(C)(C)C)C(=O)OCc1ccccc1 (stereo partly drawn) [Example 5, 1-[1-[2-[[(1,1-Dimethylethoxy)carbonyl]amino]-4-methylpentyl]-L-proline]-L- Isoleucine Phenylmethyl Ester] has an IC50 (human T-cells) of 27000 nM and an IC50 (FKBP) of 3000 nM.

COC(=O)[C@H](Cc1ccc(OC)cc1)N(C)C(=O)[C@@H]1CCCN1C[C@H](CC(C)C)NC(=O)OC(C)(C)C [Example 9, 1-Methyl-1-[1-[2-(S)-[[(1,1-dimethylethoxy)carbonyl]amino]-4-methylpentyl]-L-proline]-L-Tyrosine(O-Methyl)Methyl Ester] gave an IC50 (human T-cells) of 16000 nM and an IC50 (FKBP) of over 50000 nM.

CC[C@H](C)[C@H](NC(=O)[C@@H]1CCCN1C[C@H](CC(C)C)NC(=O)[C@H](CC(N)=O)NC(=O)OC(C)(C)C)C(=O)OCc1ccccc1 [Example 10, 1-[1-[2-(S)-[[4-Amino-2-(S)-[[(1,1-dimethylethoxy)-carbonyl]amino]-1,4-dioxobutyl]amino]-4-methylpentyl]-L-proline]-L-isoleucine Phenylmethyl Ester] showed an IC50 (human T-cells) of 30000 nM and an IC50 (FKBP) of 900 nM.

With CC[C@H](C)[C@H](NC(=O)[C@@H]1CCCN1CC(CC(C)C)NC(=O)[C@H](CC1CCCCC1)NC(=O)OC(C)(C)C)C(=O)OCc1ccccc1 (stereo partly drawn) [Example 11, 1-[1-[2-[[3-Cyclohexyl-2-(S)-[[(1,1-dimethylethoxy)-carbonyl]amino]-1-oxopropyl]amino]-4-methylpentyl]-L-proline]-L-isoleucine Phenylmethyl Ester] the IC50 (human T-cells) was under 6000 nM and the IC50 (FKBP) was 8400 nM.

With CC[C@H](C)[C@H](NC(=O)[C@@H]1CCCN1C[C@H](CC(C)C)NC(=O)[C@@H](N)CC(N)=O)C(=O)OCc1ccccc1 [Example 12] the IC50 (human T-cells) was under 6000 nM and the IC50 (FKBP) was 2400 nM.

Work on CC[C@H](C)[C@H](NC(=O)[C@@H]1CCCN1C[C@H](CC(C)C)NC(=O)[C@@H](N)CC1CCCCC1)C(=O)OCc1ccccc1 [Example 13, 1-[1-[2-(S)-[[2-(S)-amino-3-cyclohexyl-1-oxopropyl]-amino]-4-methylpentyl]-L-proline]-L-isoleucine Phenylmethyl Ester] yielded an IC50 (human T-cells) of under 6000 nM and an IC50 (FKBP) of 1300 nM.

For CC[C@H](C)[C@H](NC(=O)[C@@H]1CCCN1C[C@H](CC(C)C)NC(=O)[C@H](CC(N)=O)NC(=O)[C@@H](N)Cc1ccccc1)C(=O)OCc1ccccc1 [Example 15, 1-[1-[2-(S)-[[1-[2-(S)-Amino-1-Oxo-3-phenylpropyl]-L-asparaginyl]amino]-4-methylpentyl]-L-proline]-L-isoleucine Phenylmethyl Ester], the IC50 (FKBP) was 2500 nM.

CC[C@H](C)[C@H](NC(=O)[C@@H]1CCCCN1C[C@@H](NC(=O)C(C)(C)C)[C@@H](C)CC)C(=O)NCc1ccccc1 [Example 21, 1-[1-[2-(S)-[(2,2-Dimethyl-propionyl)-amino]-3-(S)-methylpentyl]-L-homoproline]-L-isoleucine benzylamide] showed an IC50 (human T-cells) of 720 nM.

In the case of CC[C@H](C)[C@H](NC(=O)[C@@H]1CCCCN1C[C@@H](NC(=O)CC(C)(C)C)[C@@H](C)CC)C(=O)NCc1ccccc1 [Example 22, 1-[1-[2-(S)-[(3,3-dimethyl-butyryl)-amino]-3-(S)-methylpentyl]-L-homoproline]-L-isoleucine benzylamide], the IC50 (human T-cells) is reported as 1000 nM.

For CC[C@H](C)[C@H](NC(=O)[C@@H]1CCCCN1C[C@@H](NC(=O)CC(C)C)[C@@H](C)CC)C(=O)NCc1ccccc1 [Example 23, 1-[1-[2-(S)-[(3-methyl-butyryl)-amino]-3-(S)-methylpentyl]-L-homoproline]-L -isoleucine benzylamide], the IC50 (human T-cells) was 900 nM.

Molecule CCCC(=O)N[C@H](CN1CCCC[C@H]1C(=O)N[C@H](C(=O)NCc1ccccc1)[C@@H](C)CC)[C@@H](C)CC [Example 24] has an IC50 (human T-cells) of 1700 nM.

From patent US5385918A, “Aminomethylene-peptides as immunosuppressants” (Miles Inc., priority 1993, dated 1995)
